Literature values, collected in patent US20090239285A1, “TANDEM REAPEAT DNA CONSTRUCTS PRODUCING PROTEINS THAT ATTACK PLANT PATHOGENIC VIRUSES, FUNGI, AND BACTERIA BY DISRUPTING TRANSCRIPTION FACTORS ESSENTIAL FOR REPLICATION THEREOF IN PLANTS” (priority 2008, published 2009).

System: rice blast fungus Magnaporthe grisea
Settings: PA treated plants; doses in range 0.5 mg/mL; cited from earlier work

For `O=C(O)c1ccccn1` [Picolinic acid, 2-pyridine carboxylic acid], the “resistance against M. grisea” value is given as “enhanced”.
